Results: the NIST ThermoML archive (doi:10.1016/j.fluid.2015.05.043)
± gives the expanded uncertainty stated by the source.

Settings: 298.15 K; 101.33 kPa; Liquid; Alternating current cell with electrodes

electrical conductivity: 0.000129 ± 1e-06 S/m
Compound: O [water]
